Measurements published in US20060189631A1, “Substituted imidazopyrimidines for the prevention and treatment of cancer” (LABORATORIOS S.A.L.V.A.T., S.A., priority 2003, published 2006).
pIC50: −log10 of the molar value.

Key:
[1] = system: human colon cancer cell lines HCT-116; test: Determination of apoptosis (DNA fragmentation into nucleosomes, Cell Death Detection ELISA PLUS); format: cell-based; settings: HCT-116, at 10 μM
Protocol: To stablish whether the antiproliferative activity of the compounds of the present invention is due to an apoptotic process, and not merely to a necrotic process, the generation of DNA fragments associated to histones (mono- and oligonucleosomes) was determined after incubation of the human colon cancer cell lines HCT-116 with the compounds of the present invention at different concentrations. DNA fragmentation into nucleosomes, which is an indicator of apoptosis phenomena, was quantified by a sandwich immunoassay using monoclonal antibodies directed against DNA and histones (Cell Death Detection ELISA^PLUS, Roche Diagnostics, cat #1920685). The quantity of fragmented DNA was expressed with the Enrichment Factor (EF) parameter, which is a coefficient of absorbance of nucleosomes liberated in the cytosol of the cells cultured in the presence of the products compared with control cells.

[2] = system: human colon adenocarcinoma cell lines (HCT-116); test: Determination of cell proliferation inhibition (Sulforodamine B); format: cell-based; settings: HCT-116, 48 hours treatment
Protocol: The inhibitory capacity of cell proliferation of the compounds was determined in two human colon adenocarcinoma cell lines (HCT-116) obtained at the ATCC (American Type Collection). The cells were seeded in 96-well plates and kept at 37° C. in a CO2 heater for 24 hours to allow cell-substrate-adhesion. Subsequently, cells were treated with the products under study at concentrations comprised between 1 and 100 μM for 48 hours. After the treatment period, the medium was removed and cells were dyed with Sulforodamine B. Finally, decolouration of the dyed cells was carried out with Tris base 10 mM and the plates were read at 493-530 nm in a plate reader. IC50 was calculated as the product concentration inducing a growth inhibition of the 50% compared with control cells not treated.

COX-2 = biological target: T1, COX-2 (Homo sapiens, UniProt P35354); test: COX-2 inhibition; format: biochemical
T1 sequence (P35354 18-604): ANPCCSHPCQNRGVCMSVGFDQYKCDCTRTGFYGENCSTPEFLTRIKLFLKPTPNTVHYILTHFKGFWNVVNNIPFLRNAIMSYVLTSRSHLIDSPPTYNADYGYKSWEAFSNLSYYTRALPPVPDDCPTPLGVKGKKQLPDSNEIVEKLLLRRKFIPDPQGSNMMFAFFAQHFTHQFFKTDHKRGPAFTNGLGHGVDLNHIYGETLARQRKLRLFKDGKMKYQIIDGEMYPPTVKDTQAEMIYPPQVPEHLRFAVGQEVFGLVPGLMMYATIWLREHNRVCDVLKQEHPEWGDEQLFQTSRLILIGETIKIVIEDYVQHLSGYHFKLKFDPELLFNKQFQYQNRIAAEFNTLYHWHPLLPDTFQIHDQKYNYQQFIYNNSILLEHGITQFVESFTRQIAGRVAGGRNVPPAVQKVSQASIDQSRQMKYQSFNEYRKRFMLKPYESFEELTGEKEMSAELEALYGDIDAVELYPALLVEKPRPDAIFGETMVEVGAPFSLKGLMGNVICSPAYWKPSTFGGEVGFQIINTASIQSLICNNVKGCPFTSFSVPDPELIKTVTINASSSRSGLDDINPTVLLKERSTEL

Row | Structure (SMILES) | EF (Apoptosis induction, Enrichment Factor) [1] | pIC50 [2] | pIC50 (COX-2)
1 | Cc1ccc(-c2cc(C(F)(F)F)nn2-c2ccc(S(N)(=O)=O)cc2)cc1 [Celecoxib, reference compound] | + (EF < 3) | < 4.60 | –
2 | COc1ccc(-c2nc3ncccn3c2-c2ccc(SC)cc2)cc1 [Example 8, 2-(4-Methoxyphenyl)-3-(4-methylsulfanylphenyl)imidazo[1,2-a]pyrimidine] | +++ (EF > 6) | > 5.30 | 4.60 to 5.30
3 | CSc1ccc(-c2c(-c3ccc(Br)cc3)nc3ncccn23)cc1 [Example 13, 2-(4-Bromophenyl)-3-(4-methylsulfanylphenyl)imidazo[1,2-a]pyrimidine] | +++ (EF > 6) | > 5.30 | < 4.60
4 | CSc1ccc(-c2nc3ncccn3c2-c2ccc(SC)c(Cl)c2)cc1 [Example 86, 3-(3-Chloro-4-methylsulfanylphenyl)-2-(4-methylsulfanylphenyl)imidazo[1,2-a]pyrimidine] | +++ (EF > 6) | > 5.30 | –
5 | COc1ccc(-c2nc3ncccn3c2-c2ccc(SC)c(Cl)c2)cc1 [Example 124, 3-(3-Chloro-4-methylsulfanylphenyl)-2-(4-methoxyphenyl)imidazo[1,2-a]pyrimidine] | +++ (EF > 6) | > 5.30 | < 4.60
6 | COc1ccc(-c2nc3nc(C)ccn3c2-c2ccc(SC)c(Cl)c2)cc1 [Example 125, 3-(3-Chloro-4-methylsulfanylphenyl)-2-(4-methoxyphenyl)-7-methylimidazo[1,2-a]pyrimidine] | +++ (EF > 6) | 4.60 to 5.30 | –
7 | CSc1ccc(-c2c(-c3cccc(C)c3)nc3ncccn23)cc1Br [Example 132, 3-(3-Bromo-4-methylsulfanylphenyl)-2-m-tolylimidazo[1,2-a]pyrimidine] | +++ (EF > 6) | > 5.30 | < 4.60
8 | CSc1ccc(-c2c(-c3ccc(Cl)cc3)nc3ncccn23)cc1Br [Example 136, 3-(3-Bromo-4-methylsulfanylphenyl)-2-(4-chlorophenyl)imidazo[1,2-a]pyrimidine] | +++ (EF > 6) | > 5.30 | < 4.60
9 | COc1ccc(-c2nc3ncccn3c2-c2ccc(SC)c(C)c2)cc1 [Example 138, 2-(4-Methoxyphenyl)-3-(3-methyl-4-methylsulfanylphenyl)imidazo[1,2-a]pyrimidine] | +++ (EF > 6) | > 5.30 | < 4.60
10 | CCCSc1ccc(-c2c(-c3ccc(OC)cc3)nc3ncccn23)cc1Cl [Example 148, 3-(3-Chloro-4-propylsulfanylphenyl)-2-(4-methoxyphenyl)imidazo[1,2-a]pyrimidine] | +++ (EF > 6) | > 5.30 | < 4.60
11 | COc1ccc(-c2nc3ncccn3c2-c2ccc(SC(C)C)cc2)cc1 [Example 151, 3-(4-Isopropylsulfanylphenyl)-2-(4-methoxyphenyl)imidazo[1,2-a]pyrimidine] | +++ (EF > 6) | > 5.30 | < 4.60
12 | Cc1ccc(-c2nc3ncccn3c2-c2ccc(SC(C)C)c(Cl)c2)cc1 [Example 153, 3-(3-Chloro-4-isopropylsulfanylphenyl)-2-p-tolylimidazo[1,2-a]pyrimidine] | +++ (EF > 6) | > 5.30 | < 4.60
13 | CSc1ccc(-c2nc3ncccn3c2-c2ccc(SC(C)C)c(Cl)c2)cc1 [Example 157, 3-(3-Chloro-4-isopropylsulfanylphenyl)-2-(4-methylsulfanylphenyl)imidazo[1,2-a]pyrimidine] | +++ (EF > 6) | > 5.30 | < 4.60
14 | COc1ccc(-c2nc3ncccn3c2-c2ccc([S+](C)[O-])c(Cl)c2)cc1 (stereo not drawn) [Example 189, 3-(3-Chloro-4-methanesulfinylphenyl)-2-(4-methoxyphenyl)imidazo[1,2-a]pyrimidine] | +++ (EF > 6) | 4.60 to 5.30 | < 4.60
15 | CSc1ccc(-c2c(-c3ccc(Cl)cc3)nc3ncccn23)cc1Cl [Example 238, 3-(3-Chloro-4-methylsulfanylphenyl)-2-(4-chlorophenyl)imidazo[1,2-a]pyrimidine] | +++ (EF > 6) | > 5.30 | < 4.60
16 | CSc1ccc(-c2c(-c3ccc(F)cc3)nc3ncccn23)cc1Cl [Example 240, 3-(3-Chloro-4-methylsulfanylphenyl)-2-(4-fluorophenyl)imidazo[1,2-a]pyrimidine] | ++ (3 < EF < 6) | 4.60 to 5.30 | < 4.60
17 | COc1ccc(-c2nc3ncccn3c2-c2ccc3c(c2)C(C)(C)CCS3)cc1 [Example 244, 3-(4,4-Dimethylthiochroman-6-yl)-2-(4-methoxyphenyl)imidazo[1,2-a]pyrimidine] | +++ (EF > 6) | > 5.30 | < 4.60
18 | CC1=C(CC(=O)O)c2cc(F)ccc2/C1=C\c1ccc(S(C)(=O)=O)cc1 [Exisulind, reference compound] | + (EF < 3) | < 4.60 | < 4.60
